What all share (assay): NCI-60 cell line screen, 48 h
Experiment [1] deals with CCRF-CEM leukemia.
The test system of experiment [2] is DU-145 prostate.
The test system of experiment [3] is K-562 leukemia.
Experiment [4] deals with KM12 colon.
In experiment [5] the test system is MOLT-4 leukemia.
For experiment [6], the system named is NCI-H226 lung.
The test system of experiment [7] is NCI-H460 lung.
Experiment [8] concerns OVCAR-8 ovarian.
The subject of experiment [9] is SNB-75 CNS.
The subject of experiment [10] is UO-31 renal.

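Protocol summary: plate cells (96-well), add compound at 5 concentrations, incubate 48 h, interpolate endpoints linearly. GI50 = concentration required for 50% inhibition of growth. TGI denotes the concentration required for complete inhibition of growth.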 Bounds are passed on as bounds.

Turning to `O=C1c2cc(-c3ccccc3)ccc2-c2c1c1ccc([N+](=O)[O-])cc1c(=O)n2CCCBr`, the GI50 in [1] was 0.16 µM; in experiment [2], more than 50 µM; in experiment [4], more than 50000 nM; in [5], more than 50 µM; in experiment [6], more than 47400 nM; in experiment [7] it was more than 50 µM. The GI50 in experiment [8] was more than 50 µM; in [9], 15.1 µM; in experiment [10], more than 50000 nM. Also, the TGI was 0.6 µM in [1]; more than 50 µM in experiment [2]; more than 12.2 µM in experiment [3]; more than 50 µM in experiment [4]; more than 50 µM in [5]; more than 50 µM in experiment [6]. The TGI was more than 50 µM in experiment [7], more than 50 µM in experiment [8], more than 26.2 µM in experiment [9] and more than 50 µM in experiment [10].

For the molecule `COc1cc2c(cc1OC)C(CC1(O)CCCCC1)N(S(=O)(=O)c1ccc(C)cc1)CC2` (centres undefined), the GI50 is more than 10 µM in [1]; more than 10 µM in experiment [2]; more than 10000 nM in experiment [3]; more than 10000 nM in [4]; more than 10 µM in [5]; more than 10000 nM in [6]. The GI50 in experiment [7] is more than 10 µM; in experiment [8] it was more than 10 µM; in experiment [9], more than 10 µM; in experiment [10] it was more than 10000 nM. Besides, the TGI in experiment [1], in [2], in experiment [3], in experiment [4], in experiment [5] and in experiment [6] was more than 10 µM in each case. Besides, the TGI in [7], in experiment [8], in experiment [9] and in experiment [10] was more than 10 µM throughout.

Regarding `COc1ccc(SC2c3ccc(C)cc3Oc3nc(N)c(C#N)c(N)c32)cc1` (centres undefined), the GI50 in experiment [1] is 2.85 µM; in experiment [2], 1.82 µM; in experiment [3], 2660 nM; in [4], 1610 nM; in experiment [5], 1.96 µM; in experiment [6], 1750 nM. In addition, the GI50 in experiment [7] was 2.13 µM; in experiment [8], 1.64 µM; in experiment [9] it was 1.46 µM; in [10], 1390 nM. The TGI in [1] is 7.67 µM; in experiment [2] it was 3.21 µM; in experiment [3], 8.44 µM; in [4], 3.05 µM; in experiment [5], 5.61 µM; in experiment [6], 3.22 µM. Besides, the TGI in experiment [7] was 4.36 µM; in [8], 3.06 µM; in experiment [9], 3.21 µM; in experiment [10] it was 2.68 µM.

As to `Cc1cccc(Cl)c1NC(=O)c1cnc(Nc2cc(N3CCOCC3)cc(N3CCOCC3)c2)s1`, the GI50 is more than 6.27 µM in experiment [1]; 0.163 µM in [2]; 1.47 nM in experiment [3]; more than 6220 nM in [4]; more than 4.96 µM in [5]; 601 nM in experiment [6]. Moreover, the GI50 was more than 5.16 µM in experiment [7], 0.0842 µM in [8], 0.00147 µM in [9] and 6.7 nM in experiment [10]. In addition, the TGI was more than 10 µM in experiment [1]; more than 3.6 µM in experiment [2]; more than 10 µM in [3]; more than 10 µM in experiment [4]; more than 10 µM in experiment [5]; more than 10 µM in experiment [6]. For the same molecule, the TGI in experiment [7] was more than 10 µM; in [8] it was more than 10 µM; in [9], 0.0176 µM; in experiment [10], 0.789 µM.

For the molecule `COc1cc(F)cc([C@@H](CO)NC(=O)[C@@H](C)N2Cc3ccc(-c4nc(NC5CCOCC5)ncc4Cl)cc3C2=O)c1`, the GI50 in experiment [1] was 17.1 µM; in experiment [2], 12.3 µM; in experiment [3], 536 nM; in experiment [4], 98.8 nM; in [5] it was 7.42 µM; in [6], 1300 nM. For the same molecule, the GI50 in [7] is 6.14 µM; in [8], 13.6 µM; in experiment [9], 12.5 µM; in [10], 406 nM. For the same molecule, the TGI in [1] is more than 92.8 µM; in [2], more than 84.2 µM; in experiment [3], more than 100 µM; in experiment [4], 37.4 µM; in experiment [5], 34.1 µM; in [6], 33.2 µM. Besides, the TGI in experiment [7] was more than 100 µM; in experiment [8], 64.8 µM; in [9] it was 54 µM; in [10] it was 33.6 µM.

As for `CC(=O)C1COC(O)C1C` (centres undefined), the TGI was more than 100 µM in experiment [1]; 70.8 µM in experiment [2]; more than 100 µM in experiment [3]; 28 µM in experiment [4]; 99.2 µM in experiment [5]; 43.4 µM in experiment [6]. Further, the TGI in experiment [7] is 44.5 µM; in experiment [8], 46 µM; in experiment [9], 70.4 µM; in experiment [10], 34.9 µM.

As to `COc1ccc2nc3cc([N+](=O)[O-])ccc3c(NCCCN(CCO)CCO)c2c1`, the GI50 in experiment [1] was 3.78 µM; in [2], 12.6 µM; in experiment [3], 1940 nM; in experiment [4] it was 2640 nM; in [5] it was 2.59 µM; in [6], 8100 nM. In addition, the GI50 in experiment [7] is 2.18 µM; in experiment [8], 3.31 µM; in [9] it was 10.9 µM; in experiment [10] it was 8560 nM. In addition, the TGI worked out at 14.6 µM in experiment [1]; 43.4 µM in experiment [2]; 4.77 µM in experiment [3]; 9.97 µM in experiment [4]; 5.99 µM in experiment [5]; 21.5 µM in [6]. Also, the TGI in [7] was found to be 8.75 µM; in [8], 11.2 µM; in experiment [9], 22.9 µM; in experiment [10], 22.6 µM.
